Measurements as given in patent publication US9751854B2 (Millennium Pharmaceuticals, Inc., priority 2014, dated 2017).

Biological target: human VPS34 (Homo sapiens (Human), UniProt Q8NEB9)
Assay: Human VPS34 enzyme assay (Adapta TR-FRET ADP detection)
Type: biochemical
Parameters: Percent Inhibition: dose or concentration left out as unconfirmed
Conditions: for IC50: IC50 range class

Sequence of human VPS34 (Q8NEB9 whole entry): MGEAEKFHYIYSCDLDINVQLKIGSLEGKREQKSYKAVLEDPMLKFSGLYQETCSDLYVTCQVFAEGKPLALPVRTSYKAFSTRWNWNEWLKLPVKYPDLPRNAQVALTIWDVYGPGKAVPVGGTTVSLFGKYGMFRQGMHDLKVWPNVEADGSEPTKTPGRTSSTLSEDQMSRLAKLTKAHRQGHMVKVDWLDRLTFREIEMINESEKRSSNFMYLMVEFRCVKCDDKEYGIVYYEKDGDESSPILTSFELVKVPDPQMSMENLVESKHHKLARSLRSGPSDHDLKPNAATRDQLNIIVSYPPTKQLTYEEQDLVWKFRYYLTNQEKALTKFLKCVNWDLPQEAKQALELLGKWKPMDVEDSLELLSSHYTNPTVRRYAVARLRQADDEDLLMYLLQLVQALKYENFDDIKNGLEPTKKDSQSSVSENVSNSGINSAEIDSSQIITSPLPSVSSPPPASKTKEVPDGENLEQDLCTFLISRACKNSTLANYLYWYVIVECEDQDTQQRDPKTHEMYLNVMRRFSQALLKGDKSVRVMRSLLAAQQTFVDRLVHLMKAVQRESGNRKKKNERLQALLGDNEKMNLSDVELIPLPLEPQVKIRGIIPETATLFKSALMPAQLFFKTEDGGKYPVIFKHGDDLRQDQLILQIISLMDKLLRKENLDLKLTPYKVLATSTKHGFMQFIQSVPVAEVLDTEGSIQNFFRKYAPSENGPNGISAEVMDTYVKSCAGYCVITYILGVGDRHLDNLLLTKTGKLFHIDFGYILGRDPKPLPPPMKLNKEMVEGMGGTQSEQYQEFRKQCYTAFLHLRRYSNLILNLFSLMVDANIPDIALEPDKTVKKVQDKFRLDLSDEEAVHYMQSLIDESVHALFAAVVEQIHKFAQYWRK

Row | SMILES | Percent Inhibition [%] | IC50 [nM]
1 | CC(=O)Nc1cc(-c2cnc(C)c(NS(=O)(=O)N3CC4CCC3C4)c2)ccn1 (stereo not shown) [Compound I-445, N-{5-[(2-azabicyclo[2.2.1]hept-2-ylsulfonyl)amino]-6-methyl-3,4′-bipyridin-2′-yl}acetamide] | >99 | 10 to 50
2 | CC(=O)Nc1cc(-c2cnc(C)c(NC(=O)c3ccc(F)cc3F)c2)ccn1 [Compound I-115, N-(2′-acetamido-6-methyl-3,4′-bipyridin-5-yl)-2,4-difluorobenzamide] |  | > 100
3 | CC(=O)Nc1cc(-c2cncc(NC(=O)Cc3ccccc3)c2)ccn1 [Compound I-106, N-(2′-acetamido-3,4′-bipyridin-5-yl)-2-phenylacetamide] |  | > 100
4 | Cc1nccc(Nc2cc(-c3cnc(C)c(C(=S)N4CCC4)c3)ccn2)n1 [Compound I-223, Azetidin-1-yl{6-methyl-2′-[(2-methylpyrimidin-4-yl)amino]-3,4′-bipyridin-5-yl}methanethione] |  | 10 to 50
5 | CC(=O)Nc1cc(-c2cnc(N)c(C(=O)N3CCOCC3)c2)ccn1 [Compound I-152, N-[6-amino-5-(morpholin-4-ylcarbonyl)-3,4′-bipyridin-2′-yl]acetamide] |  | 10 to 50
6 | CC(=O)Nc1cc(-c2cnc(Cl)c(N3CCCNS3(=O)=O)c2C)ccn1 [Compound I-473, N-[6-chloro-5-(1,1-dioxido-1,2,6-thiadiazinan-2-yl)-4-methyl-3,4′-bipyridin-2′-yl]acetamide] |  | 10 to 50
7 | CC(=O)Nc1cc(-c2cnc3ccn(CC4CC4)c3c2)ccn1 [Compound I-93, N-{4-[1-(cyclopropylmethyl)-1H-pyrrolo[3,2-b]pyridin-6-yl]pyridin-2-yl}acetamide] |  | 10 to 50
8 | Cc1nccc(Nc2cc(-c3cnc(C)c(C(=O)N(C)C)c3)ccn2)n1 [Compound I-266, N,N,6-trimethyl-2′-[(2-methylpyrimidin-4-yl)amino]-3,4′-bipyridine-5-carboxamide] |  | 10 to 50
9 | CC(=O)Nc1cc(-c2cncc(N3CCCS3(=O)=O)c2)ccn1 [Compound I-192, N-[5-(1,1-dioxidoisothiazolidin-2-yl)-3,4′-bipyridin-2′-yl]acetamide] |  | 50 to 100
10 | CC(=O)Nc1cc(-c2cnc(C)c(C(=O)N(C)C)c2)ccn1 [Compound I-75, 2′-acetamido-N,N,6-trimethyl-3,4′-bipyridin-5-carboxamide] |  | 50 to 100
11 | Cc1ncc(-c2ccnc(Nc3ccnc(C(F)(F)F)n3)c2)cc1NS(=O)(=O)c1ccc(F)cc1F [Compound I-237, 2,4-difluoro-N-(6-methyl-2′-{[2-(trifluoromethyl)pyrimidin-4-yl]amino}-3,4′-bipyridine-5-yl)benzenesulfonamide] |  | 10 to 50
12 | COc1ccccc1S(=O)(=O)Nc1cc(-c2ccnc(NC(C)=O)c2)cnc1C [Compound I-74, N-(5-{[(2-methoxyphenyl)sulfonyl]amino}-6-methyl-3,4′-bipyridin-2′-yl)acetamide] |  | < 10
13 | Cc1nccc(Nc2cc(-c3cnc(C)c(C(=O)O)c3)ccn2)n1 [Compound I-253, 6-methyl-2′-((2-methylpyrimidin-4-yl)amino)-[3,4′-bipyridine]-5-carboxylic acid] |  | 10 to 50
14 | CC(=O)Nc1cc(-c2cncc(C(C)=O)c2)ccn1 [Compound I-194, N-(5-acetyl-3,4′-bipyridin-2′-yl)acetamide] |  | > 100
15 | CC(=O)Nc1cc(-c2cnc(C)c(NS(=O)(=O)c3ccc(OC(F)(F)F)cc3Cl)c2)ccn1 [Compound I-113, N-[5-({[2-chloro-4-(trifluoromethoxy)phenyl]sulfonyl}amino)-6-methyl-3,4′-bipyridin-2′-yl]acetamide] |  | < 10
16 | Cc1nccc(Nc2cc(-c3cnc(C)c(OCCO)c3)ccn2)n1 [Compound I-424, 2-({6-methyl-2′-[(2-methylpyrimidin-4-yl)amino]-3,4′-bipyridin-5-yl}oxy)ethanol] |  | 10 to 50
17 | CC(=O)Nc1cc(-c2cnc3cn[nH]c3c2)ccn1 [Compound I-116, N-[4-(1H-pyrazolo[4,3-b]pyridin-6-yl)pyridin-2-yl]acetamide] |  | > 100
18 | CC(=O)Nc1cc(-c2cnc(N)c(S(=O)(=O)N3CCOCC3)c2)ccn1 [Compound I-24, N-[6-amino-5-(morpholin-4-ylsulfonyl)-3,4′-bipyridin-2′-yl]acetamide] |  | < 10
19 | COc1ncc(-c2ccnc(NC(C)=O)c2)cc1S(=O)(=O)Nc1cc(Cl)ccc1Cl [Compound I-432, N-{5-[(2,5-dichlorophenyl)sulfamoyl]-6-methoxy-3,4′-bipyridin-2′-yl}acetamide] |  | 10 to 50
20 | Cc1nccc(Nc2cc(-c3cnc(C)c(C(=O)N4CC(F)(F)C4)c3)ccn2)n1 [Compound I-221, (3,3-difluoroazetidin-1-yl){6-methyl-2′-[(2-methylpyrimidin-4-yl)amino]-3,4′-bipyridin-5-yl]methanone] |  | 10 to 50
21 | CCN(CC)C(=O)c1cc(-c2ccnc(Nc3ccnc(C)n3)c2)cnc1C [Compound I-302, N,N-diethyl-6-methyl-2′-[(2-methylpyrimidin-4-yl)amino]-3,4′-bipyridine-5-carboxamide] |  | 10 to 50

Row | SMILES | Percent Inhibition [%] | IC50 [nM]
22 | CC(=O)Nc1cc(-c2cnc(Cl)c(S(=O)(=O)NC(CO)c3ccccc3)c2)ccn1 (stereo in doubt) [Compound I-403, N-(6-chloro-5-{[(1R)-2-hydroxy-1-phenylethyl]sulfamoyl}-3,4′-bipyridin-2′-yl)acetamide] |  | > 100
23 | CC(=O)Nc1cc(-c2cc(OS(=O)(=O)N(C)C)c3ccnn3c2)ccn1 [Compound I-428, 6-(2-acetamidopyridin-4-yl)pyrazolo[1,5-a]pyridin-4-yl dimethylsulfamate] |  | < 10
24 | CC(=O)Nc1cc(-c2cnc(C)c(NS(=O)(=O)c3ccc(F)cc3F)c2)cc[n+]1[O-] [Compound I-219, N-[4-(5-{[(2,4-difluorophenyl)sulfonyl]amino}-6-methylpyridin-3-yl)-1-oxidopyridin-2-yl]acetamide] |  | 50 to 100
25 | CC(=O)Nc1cc(-c2cnc(C)c(NS(=O)(=O)c3ccsc3)c2)ccn1 [Compound I-203, N-{6-methyl-5-[(3-thienylsulfonyl)amino]-3,4′-bipyridin-2′-yl}acetamide] |  | < 10
26 | COC(=O)Nc1cc(-c2cnc(N)c(C(=O)N(C)C)c2)ccn1 [Compound I-55, methyl [6-amino-5-(dimethylcarbamoyl)-3,4′-bipyridin-2′-yl]carbamate] |  | < 10
27 | CC(=O)Nc1cc(-c2cncc(S(=O)(=O)NCc3ccccc3)c2)ccn1 [Compound I-321, N-[5-(benzylsulfamoyl)-3,4′-bipyridin-2′-yl]acetamide] |  | 50 to 100
28 | CC(=O)Nc1cc(-c2cncc(NC(=O)c3ccc(F)cc3F)c2)ccn1 [Compound I-419, N-(2′-acetamido-3,4′-bipyridin-5-yl)-2,4-difluorobenzamide] |  | > 100
29 | Cc1nccc(Nc2cc(-c3cnc(C)c(C(=O)N(C)c4ccc(F)cc4F)c3)ccn2)n1 [Compound I-346, N-(2,4-difluorophenyl)-N,6-dimethyl-2′-[(2-methylpyrimidin-4-yl)amino]-3,4′-bipyridine-5-carboxamide] |  | 10 to 50
30 | CC(=O)Nc1cc(-c2cnc(Cl)c(NS(=O)(=O)c3ccc(C#N)cc3)c2C)ccn1 [Compound I-429, N-(6-chloro-5-{[(4-cyanophenyl)sulfonyl]amino}-4-methyl-3,4′-bipyridin-2′-yl)acetamide] |  | 10 to 50
31 | Cc1nccc(Nc2cc(-c3cncc(C(=O)N4CC(F)(F)C4)c3)ccn2)n1 [Compound I-408, (3,3-difluoroazetidin-1-yl){2′-[(2-methylpyrimidin-4-yl)amino]-3,4′-bipyridin-5-yl}methanone] |  | 10 to 50
32 | CC(=O)Nc1cc(-c2cnc(C)c(N(C)S(=O)(=O)c3ccccc3)c2)ccn1 [Compound I-46, N-{6-methyl-5-[methyl(phenylsulfonyl)amino]-3,4′-bipyridin-2′-yl}acetamide] |  | 10 to 50
33 | CC(=O)Nc1cc(-c2cnc(C)c(S(N)(=O)=O)c2)ccn1 [Compound I-395, N-(6-methyl-5-sulfamoyl-3,4′-bipyridin-2′-yl)acetamide] |  | 10 to 50
34 | CC(=O)Nc1cc(-c2cnc3ccn(S(=O)(=O)c4ccccc4)c3c2)ccn1 [Compound I-23, N-{4-[1-(phenylsulfonyl)-1H-pyrrolo[3,2-b]pyridin-6-yl]pyridin-2-yl}acetamide] |  | < 10
35 | Cc1ncc(-c2ccnc(Nc3nc4ccccc4o3)c2)cc1NS(=O)(=O)c1ccc(F)cc1F [Compound I-233, N-[2′-(1,3-benzoxazol-2-ylamino)-6-methyl-3,4′-bipyridin-5-yl}2,4-difluorobenzenesulfonamide] |  | 10 to 50
36 | CC(=O)Nc1cc(-c2cnc(N)c(S(=O)(=O)Nc3cccc(Cl)c3)c2)ccn1 [Compound I-97, N-[6-amino-5-[(3-chlorophenyl)sulamoyl]-3,4′-bipyridin-2′-yl]acetamide] |  | < 10
37 | Cc1nccc(Nc2cc(-c3cnc(C)c(OCCN(C)C)c3)ccn2)n1 [Compound I-379, 5-[2-(dimethylamino)ethoxy]-6-methyl-N-(2-methylpyrimidin-4-yl)-3,4′-bipyridin-2′-amine] |  | > 100
38 | CC(=O)Nc1cc(-c2cnc(C)c(NS(=O)(=O)c3ccccc3)c2)ccn1 [Compound I-84, N-{6-methyl-5-[(phenylsulfonyl)amino]-3,4′-bipyridin-2′-yl}acetamide] |  | < 10
39 | CC(=O)Nc1cc(-c2cnc(C)c(NS(=O)(=O)N3CCCCC3)c2)ccn1 [Compound I-214, N-{6-methyl-5-[(piperidin-1-ylsulfonyl)amino]-3,4′-bipyridin-2′-yl}acetamide] |  | < 10
40 | CC(=O)Nc1cc(-c2cnc(N)c(S(=O)(=O)Cc3ccccc3Cl)c2)ccn1 [Compound I-172, N-{6-amino-5-[(chlorobenzyl)sulfonyl]-3,4′-bipyridin-2′-yl}acetamide] |  | 10 to 50
41 | CC(=O)Nc1cc(-c2cnc(N)c(N3CCCS3(=O)=O)c2)ccn1 [Compound I-181, N-[6-amino-5-(1,1-dioxidoisothiazolidin-2-yl)-3,4′-bipyridin-2′-yl]acetamide] |  | < 10
42 | CC(=O)Nc1cc(-c2cnc(C)c(NS(=O)(=O)c3cccc(F)c3Cl)c2)ccn1 [Compound I-322, N-(5-{[(2-chloro-3-fluorophenyl)sulfonyl]amino}-6-methyl-3,4′-bipyridin-2′-yl)acetamide] |  | 10 to 50
